Patent US7906624B2, “Binding peptidomimetics and uses of the same” (The Trustees of the University of Pennsylvania, priority 2004, dated 2011)

Legend:
[1] = ELISA on biotin-coated plate, bound protein detected with anti-streptavidin antibody-HRP; assay type: binding; details: 0-1.1 μg/well on biotin-coated plate
Protocol: (§1) FIG. 4, panels A and B show data from enzyme-linked immunosorbent assay (ELISA) analysis of recombinant proteins for biotin and Her2-Fc binding ability. Panel A: Streptavidin or ASA was immobilized on biotin-coated plate. Bound protein was detected using an anti-streptavidin antibody-HRP. Panel B: After immobilization of Streptavidin or ASA on biotin-coated plate, Her2-human Fc fusion was added to each plate and bound fusion protein was detected using anti-Her2 antibody and anti-mouse IgG-HRP. The amounts of Streptavidin or ASA fusion protein used in this experiment were: well 1: 0; 2: 0.11 ng; 3: 1.1 ng; 4: 11 ng; 5: 110 ng; 6: 1100 ng.
(§2) The binding of ASA to Biotin and Her2 was determined by a modified ELISA assay. ELISA was performed at room temperature (RT) or 4° C. Purified streptavidin or ASA (0-1.1 μg/well) was immobilized on the biotin-coated ELISA plate (Pierce) for 1 hr at 4° C. in PBS. […] The A450 nm value of the plates was determined using an ELISA reader. Bound streptavidin was detected by the same method using an anti-streptavidin-HRP in PBS (1; 500 dilution; 50 μL/well).
(§3) The ASA fusion protein was tested to determine if it would bind to biotin as well as Her2. […] Bound Her2-Fc was detected by the mouse anti-Her2 antibody (4D5) and the HRP-conjugated anti-mouse IgG antibody.

[2] = target: T1, Her2-human Fc fusion protein (Homo sapiens, UniProt P04626); experiment: ELISA for Her2-Fc binding of protein immobilized on biotin-coated plate; details: 0-1.1 μg/well immobilized on biotin-coated plate; Her2-Fc 50 ng/well
T1 construct: Her2-human Fc fusion protein that was composed of the ectodomain of Her2 and the Fc of human IgG; purchased Xcyte Therapeutic, Seattle, Wash
Protocol: as §1, §2, §3

[3] = in vivo; cited from earlier work
[4] = tested on: T6-17 cells (Her2 transformed cells); experiment: MTT cell proliferation assay, T6-17 cells; assay type: cell-based
Protocol: (§4) FIG. 5, panels A and B show inhibition of cell proliferation by ASA. Effects of ASA treatment, or treatments with streptavidin and the peptide AHNP, on the proliferation of T6-17 (Her2 transformed cells, Panel A) or NR6 (control cells, Panel B) were shown; Cell proliferation was measured by the standard MTT assay performed on poly-HEMA plates (for T6-17) or regular tissue culture plates (for NR6).
(§5) T6-17 and NR6 cells were grown in DMEM medium supplemented with 10% heat inactivated fetal calf serum, L-glutamine (2 mM), penicillin (100 U/ml) and streptomycin (100 μg/ml) at 37° C. in a humidified 5% CO2 atmosphere.
(§6) The MTT assay has been used modified method for measuring cell growth. T6-17 cells or NR6 cells were seeded in poly 2-hydroxyethyl methacrylate coated 96 well plates (50 μl/well, 800 cells/well or 1200 cells/well). Then the Streptavidin or ASA protein or the AHNP peptide were (50 μl/well, 0.69 μM or 6.9 μM) and incubate at 37° C. in a humidified 5% CO2 atmosphere for 48 hr. A total of 25 μl of MTT solution (5 mg/ml in PBS) was added to each well, and after 2 hr of incubation at 37° C., 100 μl of the extraction-buffer (20% w/v SDS, 50% N,N-dimethyl formamide, pH 4.7) were added. After an overnight incubation at 37° C., the optical density at […] was measured using an ELISA reader.

[5] = tested on: NR6 cells (control cells); experiment: MTT cell proliferation assay, NR6 control cells; assay type: cell-based; details: NR6 control cell line
Protocol: as §4, §5, §6

[6] = tested on: T6-17 cells injected subcutaneously into nude mice; experiment: T6-17 tumor growth in nude mice; assay type: in vivo; details: for reduction of tumor size: day 14
Protocol: 1 million of T6-17 cells were injected subcutaneously into nude mice to induce the tumor growth. Panel A. Treatment of ASA started from day 0. Panel B. Treatment started on day 2 after tumor were palpable. NCR homozygous athymic (nude) mice (six to eight weeks-old) were purchased from the National Cancer Institute. To induce tumor, 10^6 transformed T6-17 cells were suspended in 100 μl of PBS and injected subcutaneously into the flank of each animal. Animals were maintained in accordance with guidelines of the Institutional Animal Care and Use Committee (IACUC) of the University of […]. Tumor volume was calculated by the formula: π*length*width*Height/6. T6-17 cells were transformed by the over-expression of human Her2/neu […]. […] In one experiment, animals were treated with either streptavidin or ASA (11.25 mg/kg/week). Treatment stared from day 0 and was provided to animals by three subcutaneous injections each week. […] Treatment was also provided to mice by a different administration route in a second experiment, in which intraperitoneal treatment started day 2 after palpable tumor appeared ( 2 cubic mm) (FIG. 6, Panel B). ASA was given at the dose of 15 mg/kg/week, divided into three injections.

streptavidin: Tetrameric biotin-binding protein produced by Streptomyces avidinii; recombinant core used as control [reference compound]
binding to biotin (ELISA) [1]: bound to biotin in a dose-dependent manner | binding to Her2-Fc fusion (ELISA) [2]: didn't bind to the Her2-human Fc fusion protein even at the highest concentration | serum half-life [3]: about 12 hours

ASA: Recombinant fusion of AHNP peptide, 11 amino acid linker GGGGSRSNSSS, streptavidin core and C-terminal NSSS linker plus His-tag; forms tetramer
binding to biotin (ELISA) [1]: bound to biotin in a dose-dependent manner | binding to Her2-Fc fusion (ELISA) [2]: able to bind to the Her2-Fc fusion in a dose-dependent manner | inhibition of cell proliferation ([4]; T6-17 cells, two different concentrations (0.69 μM or 6.9 μM), 48 hr, MTT): 20-50% | molar concentration of ASA relative to the AHNP peptide necessary to achieve 50% cell growth inhibition in vitro ([4]; in vitro, relative to AHNP peptide): about 10 times | inhibitory effect on cell proliferation [5]: Inhibitory effects were not observed | appearance of palpable tumor prevented until ([6]; 11.25 mg/kg/week, subcutaneous, from day 0): 7 days | molar excess of AHNP with comparable activity in reducing tumor growth in vivo ([6]; ASA compared with AHNP): ~30 fold | reduction of tumor size ([6]; 11.25 mg/kg/week, three subcutaneous injections each week, from day 0): 62% | reduction of tumor size ([6]; intraperitoneal, 15 mg/kg/week in three injections, from day 2 after palpable tumor, vs vehicle control): about 47.6%
